The subject of assay [1] is EspZ dimerization/oligomerization. The assay can be described thus: ToxLuc system (ToxR-TM-MBP fusions, ctx promoter luciferase reporter). Type of assay: cell-based, EPEC. The following applies: TM2 derivatives expressed as ToxR-TM-MBP fusions in E. coli ΔmalE strain (NT326); baseline Ala17.
Description: (§1) Directional targeting of the TM region to the inner membrane allows the periplasmic MBP domain to complement the growth of the ΔmalE strain in medium containing maltose as the sole carbon source. […] TM domain interactions induce dimerization of cytoplasmic ToxR domains, allowing the transcriptional activator to bind to the ctx promoter and promote expression of the downstream luciferase reporter. […] A 17-residue poly-alanine stretch (Ala17) was used as a baseline TM control for nonspecific ToxR-dependent luciferase activation. A GpA GXXXG mutant (G831) was impaired for luciferase activation (REF).
as §1, with “Membrane-localized GXXXG sequences can promote homo- and hetero-typic interactions between proteins. Referring to FIG. 5A and FIG. 5B, a ToxLuc system was used to verify targeting of the predicted EspZ TM regions to the membrane and to assess the role of GXXXG sequences in EspZ dimerization/oligomerization. […] Western blot analyses confirmed robust expression of all ToxR-TM-MBP fusion proteins. Directional” for “Directional”, “activation. As noted previously, a” for “activation. A”, “mutant (G83I)” for “mutant (G831)”
On the technique in general: In a reporter assay the amount or activity of a reporter protein is the signal.

The test system of a further assay is mitochondrial network. The assay can be described thus: CCCP-induced perturbation of the mitochondrial network (COXIV/DAPI stain). Type of assay: cell-based. Particulars: compared to mock-treated controls. The source says:
In transfected cells, EspZ prevented COOP-induced perturbation of the mitochondrial network (compared to control vector-transfected cells). Red=COXIV (mitochondrial stain); blue=DAPI stain.
The uncoupler carbonyl cyanide m-chlorophenylhydrazone (COOP) induces Fis1- and Drp1-dependent mitochondrial fission. In transfected cells, EspZ prevented COOP-induced perturbation of the mitochondrial network (see FIG. 10). Thus, EspZ may be necessary and sufficient for inhibiting mitochondrial fission.

As for “LGLGIAAGVLGLVTTVAGGLAMK (Artificial inhibitor peptide based on EspZ) [G85L, targeting peptide, EspZ TM2 derivative]”, the “luciferase activity (TM self-association)” value (shortened to “luciferase activity”) in assay [1] was “reduced luciferase activity to near-baseline levels”.

Regarding “LGLLIAALVLGLVTTVAGGLAMK (Artificial inhibitor peptide based on EspZ) [all three G residues, targeting peptide, EspZ TM2 derivative]”, the “luciferase activity” value in assay [1] was “abrogated luciferase expression”.

Take “LGLGIAALVLGGVTTVAGGLAMK (Artificial inhibitor peptide based on EspZ) [G81L, targeting peptide, EspZ TM2 derivative]”: the “luciferase activity” value in assay [1] is listed as “reduced luciferase activity to near-baseline levels”.

Regarding `N#CC(C#N)=NNc1cccc(Cl)c1` [CCCP, carbonyl cyanide m-chlorophenylhydrazone], the “effect on mitochondrial network” value in the assay with mitochondrial network is “causes fragmentation of the mitochondrial network and its retraction towards the nucleus”.

The values are drawn from patent US11484603B2, “Methods, systems, and compositions for inhibiting virulence of A/E family pathogens” (ARIZONA BOARD OF REGENTS ON BEHALF OF THE UNIVERSITY OF …, priority 2017, dated 2022).
